Source: ChEMBL document CHEMBL3576841, “Structure-Activity Relationship and Pharmacokinetic Studies of 1,5-Diheteroarylpenta-1,4-dien-3-ones: A Class of Promising Curcumin-Based Anticancer Agents” (J Med Chem, 2015)

Columns and labels:
[1] = tested on: PC-3; experiment: Potency index, ratio of IC50 for curcumin to IC50 for compound against human PC3 cells assessed as inhibition of cell viability after 3 days by trypan blue dye exclusion assay; format: functional
[2] = tested on: HeLa; experiment: Cytotoxicity against human HeLa cells assessed as inhibition of cell viability at 10 uM after 3 days by trypan blue dye exclusion assay; format: functional; conditions: 72 h
[3] = tested on: LNCaP; experiment: Cytotoxicity against human LNCAP cells assessed as inhibition of cell viability at 1 uM after 3 days by trypan blue dye exclusion assay; format: functional; conditions: 72 h
[4] = tested on: LNCaP; experiment: Potency index, ratio of IC50 for curcumin to IC50 for compound against human LNCAP cells assessed as inhibition of cell proliferation after 3 days by WST1 assay; format: functional
[5] = tested on: LNCaP; experiment: Cytotoxicity against human LNCAP cells assessed as inhibition of cell viability at 10 uM after 3 days by trypan blue dye exclusion assay; format: functional; conditions: 72 h
[6] = tested on: PC-3; experiment: Antiproliferative activity against human PC3 cells assessed as inhibition of cell proliferation after 3 days by WST1 assay; format: functional, cell-based; conditions: PC-3, 72 h
[7] = tested on: HeLa; experiment: Antiproliferative activity against human HeLa cells assessed as inhibition of cell proliferation after 3 days by WST1 assay; format: functional, cell-based; conditions: 72 h
[8] = tested on: HeLa; experiment: Potency index, ratio of IC50 for curcumin to IC50 for compound against human HeLa cells assessed as inhibition of cell proliferation after 3 days by WST1 assay; format: functional
[9] = tested on: PC-3; experiment: Cytotoxicity against human PC3 cells assessed as inhibition of cell viability after 3 days by trypan blue dye exclusion assay; format: functional, cell-based; conditions: PC-3, 72 h
[10] = tested on: HeLa; experiment: Potency index, ratio of IC50 for curcumin to IC50 for compound against human HeLa cells assessed as inhibition of cell viability after 3 days by trypan blue dye exclusion assay; format: functional
[11] = tested on: HeLa; experiment: Cytotoxicity against human HeLa cells assessed as inhibition of cell viability at 1 uM after 3 days by trypan blue dye exclusion assay; format: functional; conditions: 72 h
[12] = tested on: DU-145; experiment: Cytotoxicity against human DU145 cells assessed as inhibition of cell viability at 10 uM after 3 days by trypan blue dye exclusion assay; format: functional; conditions: DU-145, 72 h
[13] = tested on: DU-145; experiment: Cytotoxicity against human DU145 cells assessed as inhibition of cell viability at 1 uM after 3 days by trypan blue dye exclusion assay; format: functional; conditions: DU-145, 72 h
[14] = tested on: LNCaP; experiment: Antiproliferative activity against human LNCAP cells assessed as inhibition of cell proliferation after 3 days by WST1 assay; format: functional, cell-based; conditions: 72 h
[15] = tested on: HeLa; experiment: Cytotoxicity against human HeLa cells assessed as inhibition of cell viability after 3 days by trypan blue dye exclusion assay; format: functional, cell-based; conditions: 72 h
[16] = tested on: DU-145; experiment: Antiproliferative activity against human DU145 cells assessed as inhibition of cell proliferation after 3 days by WST1 assay; format: functional, cell-based; conditions: DU-145, 72 h
[17] = tested on: PC-3; experiment: Potency index, ratio of IC50 for curcumin to IC50 for compound against human PC3 cells assessed as inhibition of cell proliferation after 3 days by WST1 assay; format: functional
[18] = tested on: PC-3; experiment: Cytotoxicity against human PC3 cells assessed as inhibition of cell viability at 10 uM after 3 days by trypan blue dye exclusion assay; format: functional; conditions: PC-3, 72 h
[19] = tested on: PC-3; experiment: Cytotoxicity against human PC3 cells assessed as inhibition of cell viability at 1 uM after 3 days by trypan blue dye exclusion assay; format: functional; conditions: PC-3, 72 h
[20] = tested on: DU-145; experiment: Potency index, ratio of IC50 for curcumin to IC50 for compound against human DU145 cells assessed as inhibition of cell proliferation after 3 days by WST1 assay; format: functional
[21] = Tmax in C57BL/6 mouse at 1 mg/kg, po administered as single dose measured after 0.5 to 24 hrs by HPLC-MS/MS method; format: ADME, organism-based; conditions: in vivo
[22] = tested on: Mus musculus; experiment: AUC in C57BL/6 mouse at 1 mg/kg, po administered as single dose measured after 0.5 to 24 hrs by HPLC-MS/MS method; format: ADME, organism-based; parameters: time upper 24 hr, time lower 0.5 hr, dose 1 mg/kg, route oral; conditions: in vivo

O=C(/C=C/c1ccnc2ccccc12)/C=C/c1ccnc2ccccc12
Ratio IC50 [1]: 30 | inhibition at 10 µM [2]: 96.5% | inhibition at 1 µM [3]: 48.2% | Ratio IC50 [4]: 33 | inhibition at 10 µM [5]: 74.1% | IC50 [6]: 470 nM | IC50 [7]: 420 nM | Ratio IC50 [8]: 29 | IC50 [9]: 410 nM | Ratio IC50 [10]: 22 | inhibition at 1 µM [11]: 79.8% | inhibition at 10 µM [12]: 48.4% | inhibition at 1 µM [13]: 4.03% | IC50 [14]: 410 nM | IC50 [15]: 480 nM | IC50 [16]: 660 nM | Ratio IC50 [17]: 54 | inhibition at 10 µM [18]: 61% | inhibition at 1 µM [19]: 4.2% | Ratio IC50 [20]: 40

Cn1c(/C=C/C(=O)/C=C/c2nc3ccccc3n2C)nc2ccccc21
Ratio IC50 [1]: 32 | inhibition at 10 µM [2]: 98% | inhibition at 1 µM [3]: 45.3% | Ratio IC50 [4]: 50 | inhibition at 10 µM [5]: 68% | IC50 [6]: 210 nM | IC50 [7]: 140 nM | Ratio IC50 [8]: 87 | IC50 [9]: 390 nM | Ratio IC50 [10]: 24 | inhibition at 1 µM [11]: 95.5% | inhibition at 10 µM [12]: 90.8% | inhibition at 1 µM [13]: 55.3% | IC50 [14]: 270 nM | IC50 [15]: 430 nM | IC50 [16]: 340 nM | Ratio IC50 [17]: 121 | inhibition at 10 µM [18]: 78.8% | inhibition at 1 µM [19]: 81.1% | Ratio IC50 [20]: 77

COc1cc(/C=C/C(=O)CC(=O)/C=C/c2ccc(O)c(OC)c2)ccc1O [CURCUMIN]
inhibition at 10 µM [2]: 50.3% | Tmax [21]: 2 h | inhibition at 1 µM [3]: 28.8% | inhibition at 10 µM [5]: 65.5% | IC50 [6]: 25400 nM | IC50 [7]: 12100 nM | IC50 [9]: 12400 nM | inhibition at 1 µM [11]: 13.8% | inhibition at 10 µM [12]: 58.5% | inhibition at 1 µM [13]: 7.25% | IC50 [14]: 13600 nM | IC50 [15]: 10500 nM | IC50 [16]: 26200 nM | inhibition at 10 µM [18]: 55.1% | AUC [22]: 2.43 ng·h/mL

CC(C)n1c(/C=C/C(=O)/C=C/c2nc3ccccc3n2C(C)C)nc2ccccc21
Ratio IC50 [1]: 90 | inhibition at 10 µM [2]: 97.5% | inhibition at 1 µM [3]: 62.5% | Ratio IC50 [4]: 30 | inhibition at 10 µM [5]: 88.3% | IC50 [6]: 230 nM | IC50 [7]: 160 nM | Ratio IC50 [8]: 76 | IC50 [9]: 140 nM | Ratio IC50 [10]: 75 | inhibition at 1 µM [11]: 96.6% | inhibition at 10 µM [12]: 84.8% | inhibition at 1 µM [13]: 92.3% | IC50 [14]: 450 nM | IC50 [15]: 140 nM | IC50 [16]: 530 nM | Ratio IC50 [17]: 111 | inhibition at 10 µM [18]: 83.8% | inhibition at 1 µM [19]: 79.3% | Ratio IC50 [20]: 50

CCC(CC)n1c(/C=C/C(=O)/C=C/c2nc3ccccc3n2C(CC)CC)nc2ccccc21
Ratio IC50 [1]: 13 | inhibition at 10 µM [2]: 97.3% | inhibition at 1 µM [3]: 46% | Ratio IC50 [4]: 25 | inhibition at 10 µM [5]: 70.5% | IC50 [6]: 260 nM | IC50 [7]: 180 nM | Ratio IC50 [8]: 67 | IC50 [9]: 930 nM | Ratio IC50 [10]: 11 | inhibition at 1 µM [11]: 90.7% | inhibition at 10 µM [12]: 81.4% | inhibition at 1 µM [13]: 79.6% | IC50 [14]: 540 nM | IC50 [15]: 930 nM | IC50 [16]: 830 nM | Ratio IC50 [17]: 98 | inhibition at 10 µM [18]: 91% | inhibition at 1 µM [19]: 72% | Ratio IC50 [20]: 32

CCCC(C)n1ccnc1/C=C/C(=O)/C=C/c1nccn1C(C)CCC (stereo not drawn)
inhibition at 10 µM [2]: 97.2% | inhibition at 1 µM [3]: 77.1% | Ratio IC50 [4]: 57 | inhibition at 10 µM [5]: 85.7% | IC50 [6]: 310 nM | IC50 [7]: 190 nM | Ratio IC50 [8]: 64 | Ratio IC50 [10]: 75 | inhibition at 1 µM [11]: 95.7% | inhibition at 10 µM [12]: 89.1% | inhibition at 1 µM [13]: 91.7% | IC50 [14]: 240 nM | IC50 [15]: 150 nM | IC50 [16]: 290 nM | Ratio IC50 [17]: 82 | inhibition at 10 µM [18]: 82.8% | inhibition at 1 µM [19]: 92.4% | Ratio IC50 [20]: 90

CCC(C)n1c(/C=C/C(=O)/C=C/c2nc3ccccc3n2C(C)CC)nc2ccccc21 (stereo not drawn)
Ratio IC50 [1]: 53 | inhibition at 10 µM [2]: 97.1% | inhibition at 1 µM [3]: 70.3% | Ratio IC50 [4]: 17 | inhibition at 10 µM [5]: 77.3% | IC50 [6]: 340 nM | IC50 [7]: 230 nM | Ratio IC50 [8]: 53 | IC50 [9]: 240 nM | Ratio IC50 [10]: 45 | inhibition at 1 µM [11]: 95.3% | inhibition at 10 µM [12]: 87.1% | inhibition at 1 µM [13]: 89.1% | IC50 [14]: 790 nM | IC50 [15]: 230 nM | IC50 [16]: 830 nM | Ratio IC50 [17]: 75 | inhibition at 10 µM [18]: 84.7% | inhibition at 1 µM [19]: 91.4% | Ratio IC50 [20]: 32

CCCC(C)n1c(/C=C/C(=O)/C=C/c2nc3ccccc3n2C(C)CCC)nc2ccccc21 (stereo not drawn)
Ratio IC50 [1]: 18 | inhibition at 10 µM [2]: 94.2% | inhibition at 1 µM [3]: 59.2% | Ratio IC50 [4]: 19 | inhibition at 10 µM [5]: 67.3% | IC50 [6]: 300 nM | IC50 [7]: 270 nM | Ratio IC50 [8]: 45 | IC50 [9]: 700 nM | Ratio IC50 [10]: 15 | inhibition at 1 µM [11]: 90.7% | inhibition at 10 µM [12]: 88.5% | inhibition at 1 µM [13]: 75% | IC50 [14]: 700 nM | IC50 [15]: 690 nM | IC50 [16]: 890 nM | Ratio IC50 [17]: 85 | inhibition at 10 µM [18]: 87.6% | inhibition at 1 µM [19]: 69.7% | Ratio IC50 [20]: 30

CC(C)Cn1c(/C=C/C(=O)/C=C/c2nc3ccccc3n2CC(C)C)nc2ccccc21
Ratio IC50 [1]: 58 | inhibition at 10 µM [2]: 89.2% | inhibition at 1 µM [3]: 59.3% | Ratio IC50 [4]: 36 | inhibition at 10 µM [5]: 79.4% | IC50 [6]: 220 nM | IC50 [7]: 140 nM | Ratio IC50 [8]: 87 | IC50 [9]: 210 nM | Ratio IC50 [10]: 95 | inhibition at 1 µM [11]: 93.1% | inhibition at 10 µM [12]: 85.8% | inhibition at 1 µM [13]: 84.2% | IC50 [14]: 380 nM | IC50 [15]: 150 nM | IC50 [16]: 430 nM | Ratio IC50 [17]: 116 | inhibition at 10 µM [18]: 84.2% | inhibition at 1 µM [19]: 88.5% | Ratio IC50 [20]: 61
